Assay results as given in PubChem BioAssay (NCI).
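The compound was tested at five concentrations on cells cultured in 96-well plates, with a 48-hour exposure period. GI50 = concentration required for 50% inhibition of growth. TGI: total growth inhibition.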

Tests used:
Assay in all cases: growth of human tumour cells (NCI), 48 h
[1] = system: 786-0 renal
[2] = system: UO-31 renal
[3] = system: ACHN renal
[4] = system: CAKI-1 renal
[5] = system: SNB-75 CNS
[6] = system: SK-OV-3 ovarian
[7] = system: A549 NSCLC
[8] = system: KM12 colon
[9] = system: PC-3 prostate
[10] = system: UACC-257 melanoma
[11] = system: SN12C renal
[12] = system: RPMI-8226 leukemia
[13] = system: HOP-92 NSCLC
[14] = system: RXF 393 renal
[15] = system: HCT-15 colon
[16] = system: HS 578T breast
[17] = system: IGROV1 ovarian
[18] = system: A498 renal
[19] = system: UACC-62 melanoma
[20] = system: SK-MEL-28 melanoma
[21] = system: COLO 205 colon
[22] = system: MALME-3M melanoma
[23] = system: MDA-MB-231 breast
[24] = system: TK-10 renal
[25] = system: SF-268 CNS
[26] = system: LOX IMVI melanoma
[27] = system: SK-MEL-5 melanoma
[28] = system: MDA-MB-435
[29] = system: NCI-H460 lung
[30] = system: HCC-2998 colon
[31] = system: U251 CNS
[32] = system: DU-145 prostate
[33] = system: K-562 leukemia
[34] = system: SW-620 colon
[35] = system: SF-295 CNS
[36] = system: HOP-62 NSCLC
[37] = system: OVCAR-4 ovarian
[38] = system: HT29 colon
[39] = system: NCI-H522 lung
[40] = system: NCI/ADR-RES ovarian
[41] = system: NCI-H23 lung
[42] = system: HL-60(TB) leukemia
[43] = system: M14 melanoma
[44] = system: HCT-116 colon
[45] = system: MOLT-4 leukemia
[46] = system: SNB-19 CNS
[47] = system: MCF7 breast
[48] = system: T-47D breast
[49] = system: SF-539 CNS
[50] = system: OVCAR-5 ovarian
[51] = system: OVCAR-8 ovarian
[52] = system: NCI-H226 lung
[53] = system: SR leukemia
[54] = system: EKVX NSCLC
[55] = system: SK-MEL-2 melanoma
[56] = system: OVCAR-3 ovarian
[57] = system: BT-549 breast

SMILES: C[C@@]12CCC[C@@](C)(C(=O)O)C1CC[C@]13CC(=O)[C@](CO)(C1)[C@@H](O)CC32 (some centres undefined)
- GI50 [1]: > 100 µM
- TGI [1]: > 100 µM
- GI50 [2]: > 100 µM
- TGI [2]: > 100 µM
- GI50 [3]: > 100 µM
- TGI [3]: > 100 µM
- GI50 [4]: > 100 µM
- TGI [4]: > 100 µM
- GI50 [5]: > 100 µM
- TGI [5]: > 100 µM
- GI50 [6]: > 100 µM
- TGI [6]: > 100 µM
- GI50 [7]: > 100 µM
- TGI [7]: > 100 µM
- GI50 [8]: > 100 µM
- TGI [8]: > 100 µM
- GI50 [9]: > 100 µM
- TGI [9]: > 100 µM
- GI50 [10]: > 100 µM
- TGI [10]: > 100 µM
- GI50 [11]: > 100 µM
- TGI [11]: > 100 µM
- GI50 [12]: > 100 µM
- TGI [12]: > 100 µM
- GI50 [13]: > 100 µM
- TGI [13]: > 100 µM
- GI50 [14]: > 100 µM
- TGI [14]: > 100 µM
- GI50 [15]: > 100 µM
- TGI [15]: > 100 µM
- GI50 [16]: > 100 µM
- TGI [16]: > 100 µM
- GI50 [17]: > 100 µM
- TGI [17]: > 100 µM
- GI50 [18]: > 100 µM
- TGI [18]: > 100 µM
- GI50 [19]: > 100 µM
- TGI [19]: > 100 µM
- GI50 [20]: > 100 µM
- TGI [20]: > 100 µM
- GI50 [21]: > 100 µM
- TGI [21]: > 100 µM
- GI50 [22]: > 100 µM
- TGI [22]: > 100 µM
- GI50 [23]: > 100 µM
- TGI [23]: > 100 µM
- GI50 [24]: > 100 µM
- TGI [24]: > 100 µM
- GI50 [25]: > 100 µM
- TGI [25]: > 100 µM
- GI50 [26]: > 100 µM
- TGI [26]: > 100 µM
- GI50 [27]: > 100 µM
- TGI [27]: > 100 µM
- GI50 [28]: > 100 µM
- TGI [28]: > 100 µM
- GI50 [29]: > 100 µM
- TGI [29]: > 100 µM
- GI50 [30]: > 100 µM
- TGI [30]: > 100 µM
- GI50 [31]: > 100 µM
- TGI [31]: > 100 µM
- GI50 [32]: > 100 µM
- TGI [32]: > 100 µM
- GI50 [33]: > 100 µM
- TGI [33]: > 100 µM
- GI50 [34]: > 100 µM
- TGI [34]: > 100 µM
- GI50 [35]: > 100 µM
- TGI [35]: > 100 µM
- GI50 [36]: > 100 µM
- TGI [36]: > 100 µM
- GI50 [37]: > 100 µM
- TGI [37]: > 100 µM
- GI50 [38]: > 100 µM
- TGI [38]: > 100 µM
- GI50 [39]: > 100 µM
- TGI [39]: > 100 µM
- GI50 [40]: > 100 µM
- TGI [40]: > 100 µM
- GI50 [41]: > 100 µM
- TGI [41]: > 100 µM
- GI50 [42]: > 100 µM
- TGI [42]: > 100 µM
- GI50 [43]: > 100 µM
- TGI [43]: > 100 µM
- GI50 [44]: > 100 µM
- TGI [44]: > 100 µM
- GI50 [45]: > 100 µM
- TGI [45]: > 100 µM
- GI50 [46]: > 100 µM
- TGI [46]: > 100 µM
- GI50 [47]: > 100 µM
- TGI [47]: > 100 µM
- GI50 [48]: > 100 µM
- TGI [48]: > 100 µM
- GI50 [49]: > 100 µM
- TGI [49]: > 100 µM
- GI50 [50]: > 100 µM
- TGI [50]: > 100 µM
- GI50 [51]: > 100 µM
- TGI [51]: > 100 µM
- GI50 [52]: > 100 µM
- TGI [52]: > 100 µM
- GI50 [53]: > 100 µM
- TGI [53]: > 100 µM
- GI50 [54]: > 100 µM
- TGI [54]: > 100 µM
- GI50 [55]: > 100 µM
- TGI [55]: > 100 µM
- GI50 [56]: > 100 µM
- TGI [56]: > 100 µM
- GI50 [57]: > 100 µM
- TGI [57]: > 100 µM
